Read-outs that look alike come from different tables or passages of the source.
Legend:
Erysiphe graminis—ERYSGT = assay: Powdery Mildew of Wheat, in vivo whole plant, 24 Hour Protectant; settings: Erysiphe, read-out: ERYSGT in vivo 1 Day Protectant
[1] = system: Phytophthora infestans (PHYTIN); assay: microbe, parasite or virus in culture; assay type: cell-based; settings: Phytophthora infestans, read-out: PHYTIN in vitro Growth Inhibition
[2] = system: Magnaporthe grisea (Pyricularia oryzae—PYRIOR); assay: microbe, parasite or virus in culture; assay type: cell-based; settings: Pyricularia oryzae, read-out: PYRIOR in vitro Growth Inhibition
Septoria tritici—SEPTTR = assay: Leaf Blotch of Wheat, in vivo whole plant, 24 Hour Protectant; settings: for pest or weed control at 100 ppm: Zymoseptoria tritici, 24 h, control of fungal infection vs untreated plants, read-out: SEPTTR in vivo 1 Day Protectant
[3] = system: Rhizoctonia solani (RHIZSO); assay: microbe, parasite or virus in culture; assay type: cell-based; settings: Rhizoctonia solani, read-out: RHIZSO in vitro Growth Inhibition
[4] = system: Phytophthora infestans—PHYTIN; assay: whole plant or invertebrate; assay type: in vivo; settings: Phytophthora, in Solanum lycopersicum, 24 h, read-out: PHYTIN in vivo 1 Day Protectant
[5] = system: Leptosphaeria nodorum—LEPTNO; assay: Glume Blotch of Wheat, in vivo whole plant, 24 Hour Protectant; settings: Leptosphaeria, read-out: LEPTNO in vivo 1 Day Protectant
[6] = system: Stagonospora nodorum (Leptosphaeria nodorum—LEPTNO); assay: In vitro fungal growth inhibition, Stagonospora nodorum (LEPTNO); assay type: cell-based; settings: Leptosphaeria, read-out: LEPTNO in vitro Growth Inhibition
[7] = system: Puccinia recondita—PUCCRT; assay: Brown Rust of Wheat, in vivo whole plant, 24 Hour Protectant; settings: Puccinia, read-out: PUCCRT in vivo 1 Day Protectant
Ustilago maydis (USTIMA) = assay: microbe, parasite or virus in culture; assay type: cell-based; settings: Mycosarcoma maydis, read-out: USTIMA in vitro Growth Inhibition
[8] = system: Mycosphaerella graminicola (Septoria tritici—SEPTTR); assay: In vitro fungal growth inhibition, Mycosphaerella graminicola (SEPTTR); assay type: cell-based; settings: Zymoseptoria tritici, read-out: SEPTTR in vitro Growth Inhibition
[9] = wheat plants sprayed at 100 ppm, inoculated after 24 hours, control of fungal infection vs untreated plants
[10] = wheat plants sprayed at 100 ppm, inoculated after 24 hours
[11] = 100 ppm spray, wheat, 24 hour protectant, control of fungal infection vs untreated plants
[12] = 100 ppm spray, 24 hour protectant, wheat, control of fungal infection vs untreated plants
[13] = 100 ppm spray, 24 hour protectant, wheat
[14] = 100 ppm spray, wheat, 24 hour protectant, % control of fungal infection vs untreated plants

| Compound | pest or weed control at 100 ppm (Erysiphe graminis—ERYSGT; [9]) [%] | melting point | inhibition at 25 ppm [1] [%] | inhibition at 25 ppm [2] [%] | pest or weed control at 100 ppm (Septoria tritici—SEPTTR; [10]) [%] | inhibition at 25 ppm [3] [%] | pest or weed control at 100 ppm [4] [%] | pest or weed control at 100 ppm [5, 9] [%] | inhibition at 25 ppm ([6]; 25 ppm in the growth medium) [%] | pest or weed control at 100 ppm [7, 9] [%] | inhibition at 25 ppm (Ustilago maydis (USTIMA)) [%] | inhibition at 25 ppm ([8]; 25 ppm in the growth medium) [%] | inhibition at 25 ppm ([6]; 25 ppm in growth medium) [%] | inhibition at 25 ppm ([8]; 25 ppm in growth medium) [%] | also measured |
| --- | --- | --- | --- | --- | --- | --- | --- | --- | --- | --- | --- | --- | --- | --- | --- |
| O=C(NCC1CCCc2ccccc21)c1nc(Br)ccc1O (stereo not drawn) [Compound 485] | < 25 | 140 to 142 °C | < 80 | < 80 | < 25 | < 80 | < 25 | < 25 | < 80 | < 25 | < 80 | < 80 |  |  |  |
| CC1(C)CC(NC(=O)c2nccnc2O)CC(C)(C)C1 [Compound 533] | < 25 | 248 to 250 °C (dec.) | < 80 | < 80 | 25 to 74 | < 80 | 25 to 74 | 25 to 74 | < 80 | 25 to 74 | < 80 | < 80 |  |  |  |
| CC1(C)CC(NC(=O)c2cnccc2O)CC(C)(C)C1 [Compound 502] | < 25 | 232 to 235 °C (dec.) | < 80 | < 80 | 25 to 74 | < 80 | < 25 | 25 to 74 | < 80 | 25 to 74 | < 80 | < 80 |  |  |  |
| COc1ccnc(C(=O)Nc2ccc(NC(=O)c3cccc(C(F)(F)F)c3)cc2)c1O [Compound 453] |  | 240 to 242 °C | < 80 | < 80 |  | < 80 | < 25 |  |  |  | < 80 |  | < 80 | < 80 | pest or weed control at 100 ppm (Erysiphe graminis—ERYSGT; [11]): < 25%; pest or weed control at 100 ppm (Septoria tritici—SEPTTR; 100 ppm spray, wheat, 24 hour protectant): 25 to 74%; pest or weed control at 100 ppm [5, 11]: 25 to 74%; pest or weed control at 100 ppm [7, 11]: < 25% |
| Cc1cc(C)c(C(=O)NC2CC(C)(C)CC(C)(C)C2)c(O)n1 [Compound 528] | < 25 | 286 to 288 °C | < 80 | < 80 | 25 to 74 | < 80 | < 25 | < 25 | < 80 | < 25 | < 80 | < 80 |  |  |  |
| COc1cccc(CNC(=O)c2ncccc2O)c1 [Compound 225] |  | 41 to 43 °C | > 80 | < 80 |  | < 80 | < 25 |  |  |  | < 80 |  | < 80 | < 80 | pest or weed control at 100 ppm (Erysiphe graminis—ERYSGT; [12]): < 25%; pest or weed control at 100 ppm (Septoria tritici—SEPTTR; [13]): < 25%; pest or weed control at 100 ppm [5, 12]: < 25%; pest or weed control at 100 ppm [7, 12]: < 25% |
| COCCC(=O)Oc1c(OC)ccnc1C(=O)Nc1cccc(NC(=O)c2ccc(C(F)(F)F)cc2)c1 [Compound 718] |  | 115 to 118 °C | < 80 | < 80 |  | < 80 | < 25 |  |  |  | < 80 |  | < 80 | < 80 | pest or weed control at 100 ppm (Erysiphe graminis—ERYSGT; [14]): < 25%; SEPTTR in vivo 1 Day Protectant (Septoria tritici—SEPTTR; [14]): + +; pest or weed control at 100 ppm [5, 14]: 25 to 74%; pest or weed control at 100 ppm [7, 14]: 25 to 74% |
| CC1(C)CC(NC(=O)c2cn(-c3ccccc3)nc2O)CC(C)(C)C1 [Compound 559] | < 25 | 215 to 217 °C | < 80 | < 80 | < 25 | < 80 | < 25 | 25 to 74 | < 80 | 25 to 74 | < 80 | < 80 |  |  |  |
| CC(C)C(=O)O[C@H]1[C@H](C)OC(=O)[C@@H](NC(=O)c2cc(O)cnc2O)COC(=O)[C@@H]1Cc1ccccc1 [Compound 527] | < 25 | 120 to 130 °C | < 80 | < 80 | 25 to 74 | < 80 | < 25 | < 25 | < 80 | 25 to 74 | < 80 | < 80 |  |  |  |
| CC(NC(=O)c1ncccc1O)c1ccccc1 (stereo not drawn) [Compound 229] |  | 89 to 91 °C | < 80 | > 80 |  | < 80 | < 25 |  |  |  | < 80 |  | < 80 | > 80 | pest or weed control at 100 ppm (Erysiphe graminis—ERYSGT; [12]): < 25%; pest or weed control at 100 ppm (Septoria tritici—SEPTTR; [13]): < 25%; pest or weed control at 100 ppm [5, 12]: < 25%; pest or weed control at 100 ppm [7, 12]: < 25% |
| CC(C)C(=O)O[C@H]1[C@H](C)OC(=O)[C@@H](NC(=O)c2conc2O)COC(=O)[C@@H]1Cc1ccccc1 [Compound 561] | 25 to 74 | 115 to 117 °C | < 80 | < 80 | 25 to 74 | < 80 | < 25 | < 25 | < 80 | 25 to 74 | < 80 | < 80 |  |  |  |

Reference: patent US6706740B2, “Fungicidal heterocyclic aromatic amides and their compositions, methods of use and preparation” (Dow AgroSciences LLC, priority 1999, dated 2004)
